# Where a name gives a salt, the structure may show the parent alone.
# What was measured:
# [1] = system: IL-4 release from murine T-helper cells (D10.G4); experiment: Inhibition of anti-CD3-induced release of interleucin (IL)-4 in vitro (CIL4TC); assay type: cell-based; details: anti-CD3-induced IL-4 release; for IC50: 16 hours; for CIL4TC % inhibition: with 10 000 nmol/l
# Protocol: (§1) Inhibition of anti-CD3-induced release of interleucin (IL)-4 (CIL4TC) and IL-5-release (CIL5TC) in vitro
# (§2) Murine T-helper cells (D10.G4) were used as IL-4/IL-5-producing cells. These cells were pre-incubated with the test substances for 30 minutes at 37° C. The cells were then stimulated at 37° C. to produce interleucins by adding a monoclonal antibody against the T-cell receptor domain CD3 (anti-CD3). After 16 hours, the cells were centrifuged off and the released interleucins were quantified in the cell supernatant with ELISAs for murine IL-4 and IL-5.
# [2] = system: allergically-induced histamine release from mast cells of the peritoneal and pleura cavities; experiment: Inhibition of allergically-induced histamine release in-vitro (CHIR); assay type: cell-based, Sprague-Dawley rats; details: for IC50: allergically-induced histamine release, rat mast cells, in vitro; for CHIR % inhibition: with 10 [μmol/l] (footnote: concentration unit 10,000 nmol/l)
# Protocol: Inhibition of allergically-induced histamine release in-vitro (CHIR)
# Meth. […] Sprague-Dawley rats were sensitised against egg albumin (EA) by subcutaneous injection of 30 mg EA with killed Bordetella pertussis bacteria as adjuvant. Four weeks later, the mast cells of the peritoneal and pleura cavities were isolated from these animals. The cells were washed, resuspended in tris gel CM (the composition of tris gel CM buffer is as follows:
# the rest is water, the pH value of the solution is 7.6) buffer and pre-incubated with the test substances for 15 minutes at 37° C. The cells were then stimulated at 37° C. by adding the antigen EA to release histamine.
# [3] = system: IL-5 release from murine T-helper cells (D10.G4); experiment: Inhibition of anti-CD3-induced IL-5-release in vitro (CIL5TC); assay type: cell-based; details: 16 hours
# Protocol: as §1, §2
# [4] = system: eosinophilia in the lavage; experiment: Late phase eosinophilia model in sensitised guinea pigs (bronchoalveolar lavage); assay type: in vivo, guinea pigs (Pirbright White)
# Protocol: The in vitro investigations with D-22557 and D-22558 were continued in vivo (late phase eosinophilia model) in sensitised guinea pigs
# Male guinea pigs (Pirbright White, 200-250 g. Charles River Wiga, Sulfeld) were actively sensitised using a s.c. injection cf ovalbumin (10μg+100 mg aluminium hydroxide) and boosted 2 weeks later. One week after the booster injection the animals were exposed for 30 seconds to an aerosol made from 0.5% ovalbumin solution. 24 hours later brochoalveolar lavage (BAL) was carried out with 2×5 ml physiol. salt solution in animals sacrificed using an overdose of pentobarbital sodium and desanguinated. The lavage fluid was pooled, centrifuged for 10 minutes at 400×g and the cell pellet resuspended in 1 ml physiological salt solution. The eosinophiles were counted in a Neubauer chamber after staining by using a Becton Dickinson eosinophile test kit. Percentage Inhibition of the eosinophilia in the lavage was calculated in percent by comparing the eosinophile count of the groups treated with substance with the eosinolphile count of normal (unchallenged) and challenged control groups not treated with the substance. Each group numbered 10 animals. Test substances were either given prophylactically 2 hours before allergen challenge (-2 h) or therapeutically 4 hours after challenge (+4 h). When the therapeutic application was investigated, the animals (all groups) received azelastin (10 μg/kg po) 2 hours before allergen challenge to avoid deaths arising due to the onset of early phase bronchoconstriction.
# [5] = 5 mg/kg ip, -2 h (before allergen challenge)
SMILES,IC50 ([1]; Mus musculus) [µM],IC50 ([2]; Mast cell) [µM],IC50 ([3]; Mus musculus) [µM],CIL4TC % inhibition [1] [%],further results
"Fc1ccc(Cn2cc(CCNc3ccncc3)c3ccccc32)cc1 [D-22561, N-(4-pyridyl-yl)-2-[1-(4-fluorobenzyl)indole-3-yl]ethylamine maleate]",5.68,,3.21,,CHIR % inhibition [2]: 15%
"Fc1ccc(Cn2cc(CCNc3cccnc3)c3ccccc32)cc1.O=C(O)/C=C\C(=O)O [D-22557, N-(pyridine-3-yl)-2-[1-(4-fluorobenzyl)indole-3-yl]ethylamine maleate]",,,,,"% Inhibition of the eosinophilia in the lavage ([4]; 0.5 mg/kg ip, -2 h (before allergen challenge)): 59%; % Inhibition of the eosinophilia in the lavage ([4]; 1 mg/kg ip, -2 h (before allergen challenge)): 42%; % Inhibition of the eosinophilia in the lavage [4, 5]: 50%"
"CCOC(=O)Nc1ccc(OC)nc1NCCc1cn(Cc2ccccc2)c2ccccc12 [D-22992, N-(3-ethoxycarbonylamino-6-methoxy-(2-pyridyl))-2-(1-benzylindole-3-yl)ethylamine]",9.73,0.68,6.24,,
CCOC(=O)Nc1ccc(OC)nc1NCCCc1cn(Cc2ccc(F)cc2)c2ccccc12 [D-22993],,,,,IC50 [1]: 8.97 µM; IC50 [2]: 0.54 µM; IC50 [3]: 6.94 µM
"Fc1ccc(Cn2cc(CCCNc3cccnc3)c3ccccc32)cc1 [D-22686, N-(3-pyridyl-yl)-3-3[1-(4-fluorobenzyl)indole-3-yl]propylamine]",,0.2,7.31,41,

# Further compounds by falling IC50 ([3]; Mus musculus), results first:
IC50 ([1]; Mus musculus) [µM],IC50 ([2]; Mast cell) [µM],IC50 ([3]; Mus musculus) [µM],SMILES,CIL4TC % inhibition [1] [%],further results
,,7.77,"Fc1ccc(Cn2cc(CCCNc3ccncc3)c3ccccc32)cc1 [D-22698, N-(4-pyridyl-yl)-3-[1-(4-fluorobenzyl)indole-3-yl]propylamine]",38,
8.58,,6.89,"c1ccc(Cn2cc(CCNc3ccncc3)c3ccccc32)cc1 [D-22685, N-(4-pyridyl-yl)-2-(1-benzylindole-3-yl)ethylamine maleate]",,CHIR % inhibition [2]: 33%
,3.4,6.6,"CCOC(=O)Nc1ccc(N2CCc3c([nH]c4ccccc34)C2)nc1N [D-22559, N-(6-amino-5-ethoxycarbonylamino-(-2-pyridyl))-1,2,3,4-tetrahydro-β-carboline]",51,
7.29,,2.88,"Cn1cc(CCCNc2ccncc2)c2ccccc21 [D-22697, N-(4-pyridyl-yl)-3-(1-methylindole-3-yl)propylamine]",,
,0.4,2.7,"CCn1cc(CC(=O)Nc2ccncc2)c2ccccc21 [D-22693, N-(4-pyridyl-yl)-2-(1-ethylindole-3-yl)acetamide]",48,
7.97,0.016,1.52,"O=C(Cc1cn(Cc2ccc(F)cc2)c2ccccc12)Nc1ccncc1 [D-22558, N-(4-pyridyl)-[1-(4-fluorobenzyl)indole-3-yl]acetamide]",,"% Inhibition of the eosinophilia in the lavage [4, 5]: 41%; % Inhibition of the eosinophilia in the lavage ([4]; 10 mg/kg ip, +4 h (after challenge), animals received azelastin 10 μg/kg po 2 hours before challenge): 59%; % Inhibition of the eosinophilia in the lavage ([4]; 10 mg/kg po, -2 h (before allergen challenge)): 23%; % Inhibition of the eosinophilia in the lavage ([4]; 30 mg/kg po, -2 h (before allergen challenge)): 35%"

# Source: US5965582A, “N-benzylindole and benzopyrazole derivatives with anti-asthmatic, anti-allergic, anti-inflammatory and immunemodulating effect” (ASTA Medica Aktiengesellschaft, priority 1994, dated 1999)
